Values joined by “and” are separate entries in the source; they are usually repeats but may differ in a detail not shown here. Equal entries are not always repeated. “Also recorded” adds a separate entry of the source.
Legend:
[1] = test system: Intercellular Adhesion Molecule-1 (ICAM-1); test: Assay C: ICAM-1 relative mRNA expression in heart (TaqMan); assay type: in vivo, rat; settings: for ICAM, Mean / ICAM: mRNA; for ICAM, Mean: group mean; for ICAM: individual rats; for ICAM-1 mRNA expression in myocardium: time course 7, 14, 30 days, eplerenone 100 mg/kg/day
Description: (§1) The procedure of Assay B was expanded upon in a further study. […] Myocardial tissue from animals in each treatment group was examined after 7, 14, or 30 days of treatment.
(§2) Potassium chloride supplementation was added to the saline solution in order to prevent the potential hypokalemia associated with aldosterone excess.
(§3) At the time of the surgery, an Alzet 2002 osmotic minipump (Alza Corp., Palo Alto, Calif.) containing either vehicle (9% ethanol/87% propylene glycol/4% dH2O) or 1.0 mg/mL d-aldosterone (Sigma Chemical, St. Louis, Mo.) was inserted subcutaneously at the nape of the neck. Aldosterone was administered at a dose of 0.75 g/hour. […] Animals were sacrificed from each group (n=8-13) after 7, 14, or 30 days of treatment.
(§4) The fluorogenic 5′-nuclease assay (TaqMan PCR) using Applied Biosystems' 7700 Sequence Detection System (Applied Biosystems, Foster City, Calif.) allowed for real time detection/quantitation of a specific gene by monitoring the increase in fluorescence of a gene-specific, dye-labeled oligonucleotide probe. Probes for target and reference genes were labeled at the 5′-end with a 6-carboxyfluorescein (6FAM) reporter dye and at the 3′-end with a 6-carboxy-N,N,N′,N′-tetramethylrhodamine (TAMRA) quencher dye. When the probe was annealed to the target gene, fluorescence of 6FAM was prevented by the close proximity of TAMRA. The exonuclease activity of Taq polymerase released the dyes from the oligonucleotide probe by displacing the probe from the target sequence resulting in fluorescence excitation in direct proportion to the amount of target message present. Data analysis was performed using the Sequence Detection System software from Applied Biosystems.
All primers and probes were designed using Primer Express software supplied with the 7700 Sequence Detection System and synthesized by Applied Biosystems. Standard curves using 5-fold dilutions of total RNA (from 200 ng to 320 pg) were performed to determine the efficiency of each primer/probe set in the TaqMan reaction prior to the analysis of the experimental samples. Primer/probe sets were designed from known sequences of rat genes to be analyzed. All target gene values were normalized to a reference gene, constitutively expressed cyclophilin. Primer/probe set sequences can be found in Table 8.
RNA was extracted from frozen (−80° C.) rat heart tissue using the Totally RNA Isolation Kit (Ambion, Inc., Austin, Tex.). Tissue was crushed using a stainless steel mortar and pestle, which had been chilled to −80° C. and transferred to a dounce homogenizer (Kontes, Vineland, N.J.) containing 3-10 mL cold denaturation buffer. Tissue was homogenized and transferred to a sterile, 15 mL polypropylene centrifuge tube. An equal volume of phenol:chloroform:isoamyl alcohol (25:24:1) was added, samples were shaken vigorously for 1 min, and incubated on ice for at least 15 min. Samples were centrifuged for 30 min at 10,000 g. The aqueous phase was removed, 1/10 volume of a sodium acetate solution (3.0 M NaOAc pH 4.5) was added, samples were shaken or inverted for 10 seconds, and acid-phenol (premixed with isoamyl alcohol):chloroform (5:1, Ambion, Inc.) was added at an volume equivalent to the starting sample volume. Samples were shaken vigorously for 1 min, followed by a 15-min incubation on ice, and centrifuged for 30 min at 10,000 g. The aqueous phase removed and placed in a clean polypropylene tube. An equal volume of isopropanol (Sigma, St. Louis, Mo.) was added and the samples were mixed and incubated overnight at −20° C. The samples were centrifuged for 30 min at 10,000 g, the supernatant was removed and the RNA pellet was resuspended in DNAse/RNAse-free water. Samples were frozen at −80° C. for at least 2 hours, thawed on wet ice, and diluted for quantitation.

[2] = test system: Transforming growth factor beta 1; test: Assay C: TGF beta 1 mRNA in left ventricle (TaqMan); assay type: in vivo, rat; settings: for TGF-β, Mean: group mean; for TGF-β: individual rats
Description: as §1, §2, §3
Following exsanguination, hearts and kidneys were isolated, removed, rinsed in cold phosphate-buffered saline, and blotted dry. Kidneys were immediately bifurcated through the long axis with a razor blade and placed in 10% neutral buffered formalin (NBF, Richard-Allen Scientific, Kalamazoo, Mich.). For the hearts, the right ventricle (RV) was cut away from the left ventricle (LV), both ventricles were weighed using a Mettler AE163 balance (Mettler-Toledo, Inc., Hightstown, N.J.), and the RV was placed in 10% NBF. A 2 mm coronal slab of the LV apex was removed and frozen with dry ice/isopentane for analysis of gene expression and the remaining portion of the LV was placed in 10% NBF for fixation. Final wet trimming was completed after 3-4 days fixation where a second 2 mm coronal slab was removed for hydroxyproline analysis and a third 2 mm slab was removed from the equatorial region for histology.
as §4
Primers and probes were designed using Oligo Primer Analysis Software, Version 5.0 (National Biosciences Inc. (NBI)-Wojciech Rychlik, Cascade, Colo.). Primers were synthesized by Life Technologies (Grand Island, N.Y.) and probes were synthesized by Applied Biosystems. Primer/probe sets were designed from known sequences of rat genes to be analyzed. All target gene values were normalized to a reference gene, constitutively expressed cyclophilin. Primer/probe sets sequences can be found in Table 8
RNA was extracted from frozen (−70° C.) left ventricle (LV) tissue (approximately 10-20 mg) using 1.5 mL RNA-STAT 60 according to manufacturer's instructions (Leedo Medical Laboratories, Inc., Houston, Tex.). Briefly, tissues were homogenized using a tissue homogenizer equipped with a 5 mm probe (Ultra-Turrax T8 Homogenizer, IKA Works, Inc. Wilmington, N.C.). Following homogenization, an equal volume of molecular grade chloroform (Sigma Chemical Co., St. Louis, Mo.) was incubated with periodic mixing for 10 min at room temperature. Samples were centrifuged at 12,000 g for 10 min and RNA was precipitated from the top layer by adding an equal volume of molecular grade isopropanol (Sigma Chemical Co.) followed by an overnight incubation at −80° C.

[3] = 7 days of treatment, listed as Aldosterone + salt
[4] = 14 days of treatment, listed as Aldosterone + salt
[5] = 30 days of treatment, listed as Aldosterone + salt
[6] = 7 days of treatment, listed as Eplerenone + aldosterone + salt
[7] = 14 days of treatment, listed as Eplerenone + aldosterone + salt
[8] = 30 days of treatment, listed as Eplerenone + aldosterone + salt

| Compound | ICAM, Mean ([1]; 14 days of treatment) [AU] | ICAM, Mean ([1]; 30 days of treatment) [AU] | ICAM [1, 3] | ICAM [1, 4] [AU] | ICAM [1, 5] [AU] | ICAM-1 mRNA expression in myocardium [1] | TGF-β, Mean ([2]; 30 days of treatment) [AU] | TGF-β [2, 3] | TGF-β [2, 4] | TGF-β [2, 5] | ICAM, Mean ([1]; 7 days of treatment) [AU] | ICAM [1, 6] | ICAM [1, 7] | ICAM [1, 8] | TGF-β, Mean ([2]; 7 days of treatment) [AU] | TGF-β, Mean ([2]; 14 days of treatment) [AU] | TGF-β [2, 6] | TGF-β [2, 7] | TGF-β [2, 8] |
| --- | --- | --- | --- | --- | --- | --- | --- | --- | --- | --- | --- | --- | --- | --- | --- | --- | --- | --- | --- |
| C[C@]12CCC(=O)C=C1CC[C@@H]1[C@@H]2[C@@H](O)C[C@]2(C=O)[C@@H](C(=O)CO)CC[C@@H]12 [aldosterone] | 1.47 | 1.81 | 1.39 AU and 0.80 AU and 1.68 AU | 1.16 | 1.50 | upregulated at day 14 and 30 | 1.33 | 0.98 AU and 1.47 AU and 1.21 AU | 0.55 AU and 1.27 AU and 0.56 AU | 1.27 AU and 1.20 AU and 0.83 AU and 0.54 AU |  |  |  |  |  |  |  |  |  |
| COC(=O)[C@@H]1CC2=CC(=O)CC[C@]2(C)[C@@]23O[C@@H]2C[C@@]2(C)[C@@H](CC[C@@]24CCC(=O)O4)[C@H]13 [eplerenone, Pregn-4-ene-7,21-dicarboxylic acid, 9,11-epoxy-17-hydroxy-3-oxo-, γ-lactone, methyl ester, (7α, 11α, 17β) -] | 1.19 | 1.22 |  |  |  | significantly reduced; also recorded: inhibition of early time-course expression of myocardial ICAM-1 and VCAM-1 | 1.32 |  |  |  | 0.83 | 0.91 AU and 0.89 AU (2×) and 0.40 AU and 0.58 AU and 1.00 AU | 1.20 AU and 0.95 AU and 1.26 AU and 1.56 AU and 0.98 AU (2×) and 0.79 AU and 0.83 AU | 1.21 AU and 1.26 AU and 0.60 AU and 0.99 AU | 0.99 | 1.26 | 0.80 AU (2×) and 0.81 AU and 0.51 AU and 0.61 AU and 0.84 AU | 0.58 AU and 0.62 AU and 1.04 AU and 0.71 AU and 1.21 AU and 2.41 AU | 1.00 AU and 1.40 AU and 0.96 AU and 1.93 AU and 0.89 AU |
